# Experimental data taken from US20230265116A1, “DEGRADATION OF (EGFR) BY CONJUGATION OF EGFR INHIBITORS WITH E3 LIGASE LIGAND AND METHODS OF USE” (BEIGENE, LTD., priority 2020, published 2023).
# Key:
# [1] = molecular target: T1, EGFR L858R/T790M/C797S (BaF3-LTC cells) (Homo sapiens, UniProt P00533, C797S/L858R/T790M); assay: EGFR degradation HTRF assay, BaF3-LTC cells; type: cell-based; settings: BaF3-LTC cells; for DC50: EGFR degradation, IC50 (DC50) from curve fit, read-out: DC50(nM) BaF3-LTC; for Dmax: read-out: Dmax (%) BaF3-LTC
# T1 construct: expressed in transfected cells; host or cells: BaF3
# In short: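 EGFR remaining after a 16 h, 37 °C exposure (8 doses, 5-fold steps from 10 uM final, 0.2% DMSO) was quantified by HTRF antibodies in cell lysate. Percent inhibition relative to DMSO control was fitted by four-parameter logistic to give DC50; Dmax denotes maximal degradation.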
# [2] = tested on: EGFR Del19/T790M/C797S (H1975-clone #28); assay: EGFR degradation HTRF assay, H1975-clone #28 DTC cells; type: cell-based; settings: H1975 # 28 DTC cells; for DC50: EGFR degradation, IC50 (DC50) from curve fit, read-out: DC50(nM) H1975 # 28 DTC; for Dmax (%) H1975 # 28 DTC: maximum percentage of inhibition (degradation)
# In short: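 H1975 clones stably overexpressing mutant EGFR, with endogenous EGFR knocked out by sgRNA and homozygosity confirmed by sequencing, were treated 16h at 37° C. with compounds in 0.2% DMSO (top final 10 uM, 5-fold, 8 doses). Lysates were read by HTRF (665/620 nm); DC50 and Dmax came from fitting % degradation versus DMSO control.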
# [3] = maximum percentage of inhibition (degradation)
# T1 sequence (P00533 25-1210 T790M/C797S/L858R): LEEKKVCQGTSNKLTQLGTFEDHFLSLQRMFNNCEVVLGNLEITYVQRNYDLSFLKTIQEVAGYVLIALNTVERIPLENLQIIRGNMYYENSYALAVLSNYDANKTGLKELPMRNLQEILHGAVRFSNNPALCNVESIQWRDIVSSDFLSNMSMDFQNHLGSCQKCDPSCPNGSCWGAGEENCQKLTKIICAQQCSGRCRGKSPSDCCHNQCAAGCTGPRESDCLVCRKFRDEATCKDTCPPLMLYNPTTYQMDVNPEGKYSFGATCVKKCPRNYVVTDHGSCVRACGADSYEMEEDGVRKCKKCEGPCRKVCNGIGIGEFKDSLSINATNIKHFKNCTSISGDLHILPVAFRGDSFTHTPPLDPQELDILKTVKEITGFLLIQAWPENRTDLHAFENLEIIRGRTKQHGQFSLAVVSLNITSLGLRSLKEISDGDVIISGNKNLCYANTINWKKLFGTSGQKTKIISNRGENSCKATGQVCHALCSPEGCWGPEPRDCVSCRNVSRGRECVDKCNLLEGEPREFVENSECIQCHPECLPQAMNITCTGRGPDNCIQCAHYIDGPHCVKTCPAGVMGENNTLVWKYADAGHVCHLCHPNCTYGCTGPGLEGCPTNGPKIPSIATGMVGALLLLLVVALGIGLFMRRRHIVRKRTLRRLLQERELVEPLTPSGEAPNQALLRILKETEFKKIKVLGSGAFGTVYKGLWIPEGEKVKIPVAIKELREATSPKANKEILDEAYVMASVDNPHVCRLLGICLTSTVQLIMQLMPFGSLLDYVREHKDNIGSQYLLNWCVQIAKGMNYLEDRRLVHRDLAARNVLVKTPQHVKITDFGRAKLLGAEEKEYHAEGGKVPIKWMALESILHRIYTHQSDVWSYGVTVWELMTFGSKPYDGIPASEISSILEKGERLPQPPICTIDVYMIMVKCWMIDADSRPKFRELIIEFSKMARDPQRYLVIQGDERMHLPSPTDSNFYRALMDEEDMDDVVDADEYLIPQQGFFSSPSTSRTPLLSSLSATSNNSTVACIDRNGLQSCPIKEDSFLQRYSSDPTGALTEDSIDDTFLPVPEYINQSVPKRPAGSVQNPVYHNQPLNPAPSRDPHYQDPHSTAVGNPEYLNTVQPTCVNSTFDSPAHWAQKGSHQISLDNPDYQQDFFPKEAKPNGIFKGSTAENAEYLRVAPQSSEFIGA
Structure (SMILES),DC50 [1] [nM],"Dmax [1, 3] [%]",DC50 [2] [nM],"Dmax (%) BaF3-LTC [1, 3] [%]",Dmax (%) H1975 # 28 DTC [2] [%]
"CCOc1cc(N2CCC(N3CCN(CCc4cc(F)c(F)c5c4n(CC)c(=O)n5C4CCC(=O)NC4=O)CC3)CC2)c(CC)cc1Nc1ncc(Br)c(Nc2ccc3nc(CC)ccc3c2P(C)(C)=O)n1 (stereo not drawn) [Example 742, 3-(4-(2-(4-(1-(4-((5-bromo-4-((5-(dimethylphosphoryl)-2-ethylquinolin-6-yl)amino)pyrimidin-2-yl)amino)-5-ethoxy-2-ethylphenyl)piperidin-4-yl)piperazin-1-yl)ethyl)-3-ethyl-6,7-difluoro-2-oxo-2,3-dihydro-1H-benzo[d]imidazol-1-yl)piperidine-2,6-dione]",36.5,–,3.52,–,68.91
"CCc1ccc2c(P(C)(C)=O)c(Nc3nc(Nc4cc(CC)c(N5CCC(N6CCN(C[C@H]7C[C@H](N(C)c8cc(F)c(C9CCC(=O)NC9=O)c(F)c8)C7)CC6)CC5)cc4OC)ncc3Br)ccc2n1 (stereo partly drawn) [Example 691, 3-(4-(((1r,3r)-3-((4-(1-(4-((5-bromo-4-((5-(dimethylphosphoryl)-2-ethylquinolin-6-yl)amino)pyrimidin-2-yl)amino)-2-ethyl-5-methoxyphenyl)piperidin-4-yl)piperazin-1-yl)methyl)cyclobutyl)(methyl)amino)-2,6-difluorophenyl)piperidine-2,6-dione]",24.6,93.4,3.3,–,71.66
"CCOc1cc(N2CCC(N3CCN(CCc4c(F)ccc5c4oc(=O)n5C4CCC(=O)NC4=O)CC3)CC2)c(CC)cc1Nc1ncc(Br)c(Nc2cc(F)c3nc(CC)ccc3c2P(C)(C)=O)n1 (stereo not drawn) [Example 614, 3-(7-(2-(4-(1-(4-((5-bromo-4-((5-(dimethylphosphoryl)-2-ethyl-8-fluoroquinolin-6-yl)amino)pyrimidin-2-yl)amino)-5-ethoxy-2-ethylphenyl)piperidin-4-yl)piperazin-1-yl)ethyl)-6-fluoro-2-oxobenzo[d]oxazol-3(2H)-yl)piperidine-2,6-dione]",23.8,–,2.61,80.74,74
"CCOc1cc(N2CCC(N3CCN(C[C@@H]4CCN(c5cc(F)cc6c5oc(=O)n6C5CCC(=O)NC5=O)C4)CC3)CC2)c(CC)cc1Nc1ncc(Br)c(Nc2ccc3nc(CC)ccc3c2P(C)(C)=O)n1 (stereo partly drawn) [Example 476, 3-(7-((S)-3-((4-(1-(4-((5-bromo-4-((5-(dimethylphosphoryl)-2-ethylquinolin-6-yl)amino)pyrimidin-2-yl)amino)-5-ethoxy-2-ethylphenyl)piperidin-4-yl)piperazin-1-yl)methyl)pyrrolidin-1-yl)-5-fluoro-2-oxobenzo[d]oxazol-3(2H)-yl)piperidine-2,6-dione]",26.5,88,7.95,–,74.62

# These reach a lower DC50 [1]. Values come first.
DC50 [1] [nM],"Dmax [1, 3] [%]",DC50 [2] [nM],"Dmax (%) BaF3-LTC [1, 3] [%]",Structure (SMILES),Dmax (%) H1975 # 28 DTC [2] [%]
3.3,87.7,0.981,–,"CCOc1cc(N2CCC(N3CCN(CCc4cc(F)c([C@H]5CCC(=O)NC5=O)c(F)c4)[C@H](CO)C3)CC2)c(CC)cc1Nc1ncc(Br)c(Nc2ccc3nc(CC)ccc3c2P(C)(C)=O)n1 [Example 657, (R)-3-(4-(2-((S)-4-(1-(4-((5-bromo-4-((5-(dimethylphosphoryl)-2-ethylquinolin-6-yl)amino)pyrimidin-2-yl)amino)-5-ethoxy-2-ethylphenyl)piperidin-4-yl)-2-(hydroxymethyl)piperazin-1-yl)ethyl)-2,6-difluorophenyl)piperidine-2,6-dione]",86.35
3.64,95.4,0.612,–,"CCc1ccc2c(P(C)(C)=O)c(Nc3nc(Nc4cc(CC)c(N5CCC(N6CCN(CCc7cccc8c7n(C)c(=O)n8C7CCC(=O)NC7=O)CC6)CC5)cc4OC)ncc3Br)ccc2n1 (stereo not drawn) [Example 451, 3-(4-(2-(4-(1-(4-((5-bromo-4-((5-(dimethylphosphoryl)-2-ethylquinolin-6-yl)amino)pyrimidin-2-yl)amino)-2-ethyl-5-methoxyphenyl)piperidin-4-yl)piperazin-1-yl)ethyl)-3-methyl-2-oxo-2,3-dihydro-1H-benzo[d]imidazol-1-yl)piperidine-2,6-dione]",70.68
5.29,95,0.787,–,"CCc1cc(Nc2ncc(Br)c(Nc3ccc4nc(C)sc4c3P(C)(C)=O)n2)c(OC)cc1N1CCC(N2CCN(C(=O)[C@@H]3CCN(c4cc(F)c([C@H]5CCC(=O)NC5=O)c(F)c4)C3)CC2)CC1 [Example 685, (R)-3-(4-((R)-3-(4-(1-(4-((5-bromo-4-((7-(dimethylphosphoryl)-2-methylbenzo[d]thiazol-6-yl)amino)pyrimidin-2-yl)amino)-2-ethyl-5-methoxyphenyl)piperidin-4-yl)piperazine-1-carbonyl)pyrrolidin-1-yl)-2,6-difluorophenyl)piperidine-2,6-dione]",83.23
17,85.5,0.818,–,"CCOc1cc(N2CCC(N3CCN(CCc4ccc(F)c5c4n(CC)c(=O)n5C4CCC(=O)NC4=O)CC3)CC2)c(CC)cc1Nc1ncc(Br)c(Nc2ccc3c(=O)n(CC)ncc3c2P(C)(C)=O)n1 (stereo not drawn) [Example 594, 3-(4-(2-(4-(1-(4-((5-bromo-4-((5-(dimethylphosphoryl)-2-ethyl-1-oxo-1,2-dihydrophthalazin-6-yl)amino)pyrimidin-2-yl)amino)-5-ethoxy-2-ethylphenyl)piperidin-4-yl)piperazin-1-yl)ethyl)-3-ethyl-7-fluoro-2-oxo-2,3-dihydro-1H-benzo[d]imidazol-1-yl)piperidine-2,6-dione]",85.75
1.43,95.3,0.611,–,"CCc1cc(Nc2ncc(Br)c(Nc3ccc4c(=O)n(C5CC5)ncc4c3P(C)(C)=O)n2)c(OC)cc1N1CCC(N2CCN(CCc3ccc4c(c3)oc(=O)n4C3CCC(=O)NC3=O)CC2)CC1 (stereo not drawn) [Example 522, 3-(6-(2-(4-(1-(4-((5-bromo-4-((2-cyclopropyl-5-(dimethylphosphoryl)-1-oxo-1,2-dihydrophthalazin-6-yl)amino)pyrimidin-2-yl)amino)-2-ethyl-5-methoxyphenyl)piperidin-4-yl)piperazin-1-yl)ethyl)-2-oxobenzo[d]oxazol-3(2H)-yl)piperidine-2,6-dione]",75.25
14.8,93.3,1.38,–,"COc1cc(N2CCC(N3CC(C(=O)N4CCC(c5cc(F)c(C6CCC(=O)NC6=O)c(F)c5)CC4)C3)CC2)c(C)cc1Nc1ncc(Br)c(Nc2ccc3nc(C)ccc3c2P(C)(C)=O)n1 (stereo not drawn) [Example 687, 3-(4-(1-(1-(1-(4-((5-bromo-4-((5-(dimethylphosphoryl)-2-methylquinolin-6-yl)amino)pyrimidin-2-yl)amino)-5-methoxy-2-methylphenyl)piperidin-4-yl)azetidine-3-carbonyl)piperidin-4-yl)-2,6-difluorophenyl)piperidine-2,6-dione]",68.75
